Like-named read-outs stand apart in the source and are kept apart here. Some results are limits rather than exact numbers.

Usually IC50 stands for the concentration that inhibits the measured activity by half.

Data set [1] relates to SREBP-2 transcriptional activity (SREBP2 cleavage) in HepG2_LSSprom cells. The experiment in a line: Luciferase reporter driven by a SREBP-2 specific promoter in HepG2_LSSprom cells. It is filed as cell-based. The following applies: 24 h, read-out: SREBP2 Cleavage (IC50 μM) 24 h. As to the method:
Dose response effects were measured of Compounds on the transcriptional activity of a Luciferase reporter driven by a SREBP-2 specific promoter in HepG2_LSSprom cells.
(§1) HepG2_LSSprom cells (SwitchGear Genomics, cat# C711010L) were cultured in DMEM with 10% of fetal bovine serum (FBS), supplemented with Puromycin (1 μg/mL), 1% Penicillin/Streptomycin (Pen-Strep), 37° C., humidified, 95% air and 5% CO2. Culture media was refreshed every 2 or 3 days. Cells were used between passage number 6-12.
For luminescence assays, cells were plated out at 20,000 cells/well in white 96 well plates in DMEM plus 10% FBS and 1% Pen-Strep without puromycin. After 1 day, cells were treated with Compound by diluting the drug in culture medium without FBS to a final concentration of 0.625, 1.25, 2.5, 3.75, 5 and 10 μM. Drug was prepared by dilutions of 10 mM stock aliquots. As control was used culture medium without FBS plus DMSO. Treatments with Compound were maintained for 6 h, or 24 h, until the luciferase assay was carried out.
After 6 h of treatments with Compound, the luciferase assay was performed. Briefly, the assay solution (buffer+substrate) was prepare just prior to use. To each well 100 μL of assay solution was added. The 96-well plate was then gently mix for 2 min and incubated for 30 min at RT protected from light. The luminescence was read using a Synergy 4 (Biotek) equipment recording luminescence with sensibility set up at 150.
(§2) Five independent experiments were carried out for both luciferase and cytotoxicity assay. In each experiment, three wells were use per condition and the results are represented as means±SEM.
For luciferase assay, Vehicle (no treatment) was taken as 100% of luciferase activity. This value represents the SREBP-2 transcriptional activity for the vehicle condition and was taken as 100% of SREBP-2 cleaved. The percentage for each treatment was calculated normalizing against the vehicle control. The graphics were made using the GraphPad Prism ver. 6.05 software. Half of maximal inhibitory concentration (IC50) of the effect of Compound on SREBP was obtain by nonlinear fit regression of mean normalized values vs. Compound concentration using the log(inhibitor) vs. response−Variable slope (four parameters) tool.

Data set [2] can be described thus: Cytotoxicity assay (LDH release) in HepG2_LSSprom cells. It is filed as cell-based. Particulars: human, HepG2 LSSprom cells, 24 h treatment, LDH release. As to the method: as §1
For cytotoxicity assays, cells were plated out at 20,000 cells/well in transparent 96 well plates in DMEM plus 10% FBS and 1% Pen-Strep without puromycin. After 1 day, cells were treated with Compound by diluting in culture medium without FBS to a final concentration of 0.625, 1.25, 2.5, 3.75, 5 and 10 μM. Compound was prepared by dilutions of 10 mM stock aliquots. As a negative control culture medium was used without FBS plus DMSO. As maximum LDH release control (Lysis control) a lysis buffer provided by the kit manufacturer was used. Treatments with Compound were maintained for 6 h, or 24 h, in cell culture medium without serum until the cytotoxicity assay was started.
The cytotoxicity assay was performed according to the manufacturer's instructions. As maximum LDH release control (Lysis control) 3 wells per plate were treated with 10 μL of lysis buffer 45 min before the treatment was over. Briefly, after the 6 h, or 24 h, of treatment, 50 μL of media from each well was transferred to a new 96-well plate. To the transferred media, 50 μL of reconstituted substrate mix was added. The plates were covered from light and incubated at RT for 10 min. Then, 50 μL of stop solution was added to each well. The plates were then read using a Synergy 4 (Biotek) equipment recording the absorbance at 490 nm.
as §2
For cytotoxicity assay, Lysis control was taken as 100%/o of LDH release. The vehicle values were taken as basal LDH release and were subtracted to all the treatments (including vehicle itself) having this value as 0% of LDH release. The LDH release for the treatments was calculated respect to the 100% of LDH release of Lysis control normalized against vehicle. All the negatives values were taken as 0% of cytotoxicity. The graphics were made using the Graph Prism ver. 6.05 software.

Where [3] appears, read: 24 h treatment, HepG2_LSSprom cells.

For the compound `CCN(CCNC(C)=O)C(=O)c1ccc(-c2csc(-c3ccnc(C(C)(C)C)c3)c2)c(Cl)c1` [Compound 47, N-[2-(1-{4-[5-(2-tert-butylpyridin-4-yl)thiophen-3-yl]-3-chlorophenyl}-N-ethylformamido)ethyl]acetamide], in data set [1] (setting [3]), the half-inhibitory concentration (IC50) came out at 0.33 µM. In data set [2], the half-maximal inhibitory concentration (IC50) at 24 h was above 10 µM.
In the case of `CC(C)(C)c1cc(-c2cc(-c3ccc(C(=O)N4CCCC(O)C4)cc3Cl)cs2)ccn1` (centres unmarked) [Compound 48, 1-{4-[5-(2-tert-butylpyridin-4-yl)thiophen-3-yl]-3-chlorobenzoyl}piperidin-3-ol], the IC50 in data set [1] (setting [3]) is 0.26 µM. In data set [2], the IC50 at 24 h was above 10 µM.
Regarding `CC(C)(C)c1cc(-c2cc(-c3ccc(C(=O)N4CCC[C@@H](O)C4)cc3Cl)cs2)ccn1` [Compound 48a, (R)-(4-(5-(2-(tert-butyl)pyridin-4-yl)thiophen-3-yl)-3-chlorophenyl)(3-hydroxypiperidin-1-yl)methanone], the IC50 in data set [1] (setting [3]) stood at 0.31 µM. Also, in data set [2], the 50% inhibitory concentration (IC50) at 24 h is above 10 µM.
Consider `CC(C)(C)c1cc(-c2cc(-c3ccc(C(=O)N4CCC[C@H](O)C4)cc3Cl)cs2)ccn1` [Compound 48b, (S)-(4-(5-(2-(tert-butyl)pyridin-4-yl)thiophen-3-yl)-3-chlorophenyl)(3-hydroxypiperidin-1-yl)methanone], for which the 50% inhibitory concentration (IC50) in data set [1] (setting [3]) stood at 0.12 µM. Moreover, the IC50 at 24 h in data set [2] was above 10 µM.
For the compound `CC(C)(C)c1cc(-c2cc(-c3ccc(C(=O)Nc4cccc(O)c4)cc3Cl)cs2)ccn1` [Compound 49, 4-[5-(2-tert-butylpyridin-4-yl)thiophen-3-yl]-3-chloro-N-(3-hydroxyphenyl) benzamide], the IC50 in data set [1] (setting [3]) was above 1 µM. For the same compound, in data set [2], the IC50 at 24 h is above 10 µM.
On to `C[C@@H]1CN(C(=O)c2ccc(-c3csc(-c4ccnc(C(C)(C)C)c4)c3)c(Cl)c2)C[C@H](C)O1` [Compound 50, (2R,6S)-4-{4-[5-(2-tert-butylpyridin-4-yl)thiophen-3-yl]-3-chlorobenzoyl}-2,6-dimethylmorpholine], for which the concentration for half-maximal inhibition (IC50) in data set [1] (setting [3]) was 1.3 µM. The half-inhibitory concentration (IC50) at 24 h in data set [2] was above 10 µM.
Regarding `CC(C)N1CCc2cc(-c3csc(-c4ccnc(C(C)(C)C)c4)c3)c(Cl)cc2C1=O` [Compound 52, 6-[5-(2-tert-butylpyridin-4-yl)thiophen-3-yl]-7-chloro-2-(propan-2-yl)-1,2,3,4-tetrahydroisoquinolin-1-one], the concentration for half-maximal inhibition (IC50) in data set [1] (setting [3]) is 1.7 µM. In addition, the IC50 at 24 h in data set [2] is above 10 µM.
On to `Cc1cc(C)c(CNC(=O)c2ccc(-c3csc(-c4ccnc(C(C)(C)C)c4)c3)c(Cl)c2)c(=O)[nH]1` [Compound 53, 4-[5-(2-tert-butylpyridin-4-yl)thiophen-3-yl]-3-chloro-N-[(4,6-dimethyl-2-oxo-1,2-dihydropyridin-3-yl)methyl]benzamide], for which the IC50 in data set [1] (setting [3]) was 3.9 µM. Also, the IC50 at 24 h in data set [2] was above 10 µM.
Consider `CC(C)(C)c1cc(-c2cc(-c3ccc(C(=O)Nc4ccc(F)cc4)cc3Cl)cs2)ccn1` [Compound 54, 4-[5-(2-tert-butylpyridin-4-yl)thiophen-3-yl]-3-chloro-N-(4-fluorophenyl) benzamide], for which the half-maximal inhibitory concentration (IC50) in data set [1] (setting [3]) is 0.54 µM. Further, in data set [2], the IC50 at 24 h is above 10 µM.
Turning to `CC(C)(C)C(=O)NC1CCCN(C(=O)c2ccc(-c3csc(-c4ccnc(C(C)(C)C)c4)c3)c(Cl)c2)C1` (centres unmarked) [Compound 55, N-(1-{4-[5-(2-tert-butylpyridin-4-yl)thiophen-3-yl]-3-chlorobenzoyl}piperidin-3-yl)-2,2-dimethylpropanamide], the IC50 in data set [1] (setting [3]) came out at 0.36 µM. In addition, the IC50 at 24 h in data set [2] is above 10 µM.
The matching figures for `CC(C)(C)c1cc(-c2cc(-c3ccc(C(=O)N4CCCC(NC(=O)NC5CC5)C4)cc3Cl)cs2)ccn1` (centres unmarked) [Compound 56, 1-(1-{4-[5-(2-tert-butylpyridin-4-yl)thiophen-3-yl]-3-chlorobenzoyl}piperidin-3-yl)-3-cyclopropylurea]: 1 µM and above 10 µM.
Turning to `CC(C)(C)c1cc(-c2cc(-c3ccc(C(=O)N4CCC(O)CC4)cc3Cl)cs2)ccn1` [Compound 57, 1-{4-[5-(2-tert-butylpyridin-4-yl)thiophen-3-yl]-3-chlorobenzoyl}piperidin-4-ol], in data set [1] (setting [3]), the IC50 is 0.55 µM. Moreover, in data set [2], the IC50 at 24 h is above 10 µM.
The corresponding values for `CC(C)(C)c1cc(-c2cc(-c3ccc(C(=O)Nc4cccnc4)cc3Cl)cs2)ccn1` [Compound 58, 4-[5-(2-tert-butylpyridin-4-yl)thiophen-3-yl]-3-chloro-N-(pyridin-3-yl)benzamide] are 1.4 µM and above 10 µM.
Consider `CC(C)(C)c1cc(-c2cc(-c3ccc(C(=O)N4CCC(NS(C)(=O)=O)CC4)cc3Cl)cs2)ccn1` [Compound 59, N-(1-{4-[5-(2-tert-butylpyridin-4-yl)thiophen-3-yl]-3-chlorobenzoyl}piperidin-4-yl)methanesulfonamide], for which the IC50 in data set [1] (setting [3]) stood at 1.6 µM. In addition, in data set [2], the IC50 at 24 h was above 10 µM.
The corresponding values for `CN(C(=O)c1ccc(-c2csc(-c3ccnc(C(C)(C)C)c3)c2)c(Cl)c1)c1ncco1` [Compound 60, 4-[5-(2-tert-butylpyridin-4-yl)thiophen-3-yl]-3-chloro-N-methyl-N-(1,3-oxazol-2-yl)benzamide] are 3.5 µM and above 10 µM.
Turning to `CC(C)(C)c1cc(-c2cc(-c3ccc(C(=O)NCC(=O)N4CCOCC4)cc3Cl)cs2)ccn1` [Compound 61, 4-[5-(2-tert-butylpyridin-4-yl)thiophen-3-yl]-3-chloro-N-[2-(morpholin-4-yl)-2-oxoethyl]benzamide], in data set [1] (setting [3]), the IC50 was determined as 1.5 µM. For the same compound, the half-maximal inhibitory concentration (IC50) at 24 h in data set [2] is above 10 µM.
Regarding `CN1C2CCC1CC(NC(=O)c1ccc(-c3csc(-c4ccnc(C(C)(C)C)c4)c3)c(Cl)c1)C2` (centres unmarked) [Compound 62], the IC50 in data set [1] was above 3 µM. The IC50 at 24 h in data set [2] is above 10 µM.
On to `CCOC(=O)NC1CCN(C(=O)c2ccc(-c3csc(-c4ccnc(C(C)(C)C)c4)c3)c(Cl)c2)CC1` [Compound 63, ethyl N-(1-{4-[5-(2-tert-butylpyridin-4-yl)thiophen-3-yl]-3-chlorobenzoyl}piperidin-4-yl)carbamate], for which the concentration for half-maximal inhibition (IC50) in data set [1] (setting [3]) worked out at 2.1 µM. In addition, the IC50 at 24 h in data set [2] is above 10 µM.
Consider `CC(C)(C)OC(=O)NC1CCCN(C(=O)c2ccc(-c3csc(-c4ccnc(N5CCOCC5)c4)c3)c(Cl)c2)C1` (centres unmarked) [Compound 64, tert-butyl N-[1-(3-chloro-4-{5-[2-(morpholin-4-yl)pyridin-4-yl]thiophen-3-yl}benzoyl)piperidin-3-yl]carbamate], for which, in data set [1] (setting [3]), the IC50 came to 0.4 µM. Also, in data set [2], the IC50 at 24 h is above 10 µM.
In the case of `NC1CCCN(C(=O)c2ccc(-c3csc(-c4ccnc(N5CCOCC5)c4)c3)c(Cl)c2)C1` (centres unmarked) [Compound 65, 1-(3-chloro-4-(5-[2-(morpholin-4-yl)pyridin-4-yl]thiophen-3-yl)benzoyl)piperidin-3-amine], the half-maximal inhibitory concentration (IC50) in data set [1] (setting [3]) was found to be 2.4 µM. In addition, in data set [2], the IC50 at 24 h is above 10 µM.
Consider `Cc1sc(-c2ccnc(C(C)(C)C)c2)cc1-c1ccc(C(=O)N2CCCC(N)C2)cc1Cl` (centres unmarked) [Compound 66, 1-{4-[5-(2-tert-butylpyridin-4-yl)-2-methylthiophen-3-yl]-3-chlorobenzoyl}piperidin-3-amine], for which the IC50 in data set [1] (setting [3]) was above 10 µM. Besides, the 50% inhibitory concentration (IC50) at 24 h in data set [2] is above 10 µM.
With `Cc1sc(-c2ccnc(C(C)(C)C)c2)cc1-c1ccc(C(=O)Nc2ccccc2)cc1Cl` [Compound 67, 4-[5-(2-tert-butylpyridin-4-yl)-2-methylthiophen-3-yl]-3-chloro-N-phenyl benzamide], in data set [1], the IC50 was determined as 4.7 µM. Moreover, in data set [2], the IC50 at 24 h was above 10 µM.

(Values after patent US10189826B2, “Heterocyclic compounds and methods of use” (Medivation Technologies LLC, priority 2015, dated 2019).)
